Test results published in US20240131032A1, “AN ACTIVITY-GUIDED MAP OF ELECTROPHILE-CYSTEINE INTERACTIONS IN PRIMARY HUMAN IMMUNE CELLS” (The Scripps Research Institute, priority 2019, published 2024).

Key:
primary human T cells = experiment: T cell viability by flow cytometry (near-IR LIVE/DEAD stain); format: cell-based; details: for cytotoxicity: concentration-dependent profiles, at <20 μM
Method: FIG. 4A-4D is an overview of a multidimensional screen to identify elaborated electrophilic compounds that suppress T cell activation. FIG. 4A is a workflow for T-cell activation screen. Primary human T cells were treated with a focused library of elaborated electrophilic compounds (10 μM, structures of compounds in FIG. 12), a positive control immunosuppressive compound (DMF, 50 μM), or DMSO under TCR-stimulating conditions in 96-well plates pre-coated with 5 μg/mL αCD3 and 2 μg/mL αCD28 for 24 h. T cell activation was measured using a combination of markers, including IL2 and IFNγ secretion, as well as surface expression of CD25 and CD69. T cell viability was measured by flow cytometry using a Fixable Near-IR LIVE/DEAD™ Cell Stain. Compounds were considered as active hits if they reduced IL2 cytokine production by >65% with <15% reduction in T cell viability in the cytotoxicity assay compared to DMSO control. […] FIG. 4C are structures of active hit compounds selected for follow-up studies, including two acrylamides (BPK-21, BPK-25), two chloroacetamides (EV-3, EV-93) and DMF as a positive control. FIG. 4D are line graphs showing T cell activation and cytotoxicity profiles for selected hit compounds.
Non-tissue culture treated 96-well plates were pre-coated with αCD3 (5 μg/mL) and αCD28 antibodies (2 μg/mL) in PBS (100 μL/well) and left at 4° C. overnight. Freshly isolated T cells were re-suspended in RPMI media supplemented with 10% FBS, L-glutamine (2 mM), penicillin (100 U/mL), and streptomycin ([…]) at 2×10^6 cells/mL. Compound stocks (200×) in DMSO were diluted to 2× stocks in the working RPMI media in another 96-well plate. The pre-coated 96-well treatment plates were washed with PBS ([…]), T cells (100 μL/well, 2×10^5 cells/well) were then added to the wells, followed by the addition of 2× compound stocks in RPMI media (100 μL). The outer wells of the plates were filled with media without cells to avoid the edge effect in the assay. The treatment was done overnight (24 h) at 37° C. in a 5% CO2 containing incubator. Following the treatment, the cells were transferred to a U-bottom 96-well plate and harvested by centrifugation (600 g, 3 min, 4° C.). The supernatants were kept and stored at −80° C. for further cytokine analysis, while the cells were washed with PBS (2×150 μL) prior to staining for flow cytometry analysis.
Following the PBS washes, the cells were stained with fixable near-IR LIVE/DEAD cell stain (Invitrogen) according to manufacturer's instructions. Briefly, one vial of near-IR LIVE/DEAD dye was resuspended in DMSO (50 μL) and diluted with PBS (1:1000). The diluted stain was added to each well (200 μL) and the cells were incubated for 30 min at room temperature in the dark. After this time, the cells were pelleted (600 g, 3 min, 4° C.), washed once with PBS (200 μL/well) and incubated with a freshly made cocktail of antibodies for the appropriate cell surface markers diluted in PBS containing 2% FBS (1:400 antibody dilution).

NFATc2 = experiment: NFAT pathway activation in stimulated T cells (western blot of NFATc2); format: cell-based, human; details: 4 h
Method: FIG. 22A and FIG. 22B show the effects of active compounds on NFAT pathway activation. […] FIG. 22C and FIG. 22D show the effects of active compounds on MAPK pathway. […] All treatments were done for 24 h.

FAM213B and HLA-F = experiment: Expression-based proteomics (TMT-exp) of compound-treated T cells, FAM213B and HLA-F; format: cell-based, human; details: 24 h; >3000 total proteins quantified
Method: FIG. 7B is a scatter plot representation of protein abundance changes caused by BPK-25 (10 μM, 24 h) in two independent replicate experiments, with decreases in NuRD complex components highlighted in red. FIG. 7C is a heatmap of top proteins with decreased abundance in BPK-25-treated T cells showing that the subset of these proteins in the NuRD complex (asterisks) were largely unaltered by other active compounds and blocked in their degradation by co-treatment with the proteasome inhibitor MG132. […] FIG. 7E is a bar graph […] showing time-dependent reductions in NuRD complex members in human T cells treated with BPK-25 (10 μM). Left, representative western blots. Right, quantification of changes in protein. […] FIG. 7G is a heat map showing the changes in cysteine reactivity for NuRD complex members in human T cells treated with BPK-25 and other active compounds.
Freshly isolated T cells (1.6×10^7 cells, 2×10^6 cells/mL in RPMI media) were treated with compound or DMSO for 24 h, pelleted (600 g, 5 min), and washed with PBS (1×10 mL). The cells were then transferred to an Eppendorf tube in additional PBS (1 mL), pelleted (600 g, 5 min), flash frozen, and kept at −80° C. until further analysis. […]
At individual TMT experiment level, the following filters were applied to remove low-quality peptides: removal of non-unique peptides; removal of half-tryptic peptides; removal of peptides with more than one internal miscleaved site; removal of cysteine-containing peptides; removal of peptides with low (<10,000) sum of reporter ion intensities for control channels, and peptides with high variation between the replicate control channels (coefficient of variance >0.5). R values (compound-treated vs. DMSO-treated) were calculated using the reporter ion intensities of compound and DMSO treated TMT channels for each treatment group. […] Proteins were required to have at least two unique quantified peptides in each experiment and were quantified in at least two independent experiments.

Question: What does the source list for `C=CC(=O)N(Cc1cccc(Cl)n1)c1ccc(C(=O)Nc2ccccc2)nc1` [BPK-25]?
Answer: cytotoxicity (primary human T cells): negligible cytotoxicity; NFATc2 expression (NFATc2): reduced NFATc2 expression; reductions in FAM213B and HLA-F (FAM213B and HLA-F): > 50%

Question: With `COC(=O)/C=C/C(=O)OC` [DMF, reference compound] as the compound, how does the viability (primary human T cells; electrophilic compounds 10 μM each (DMF 50 μM), 24 h) read?
Answer: > 85%

Question: Which results are given for `C=CC(=O)N(Cc1cccc(Cl)c1Cl)c1ccc(Oc2ccccc2)c(C(F)(F)F)c1` [BPK-21]?
Answer: cytotoxicity (primary human T cells): negligible cytotoxicity; reductions in NFATc2 dephosphorylation (NFAT activation) (NFATc2): did not appear to impact; reductions in FAM213B and HLA-F (FAM213B and HLA-F): also affected

Question: Which results are given for `O=C(CCl)N1CCN(S(=O)(=O)c2ccc(-c3ccncc3)cc2)CC1` [EV-3]?
Answer: cytotoxicity (primary human T cells): negligible cytotoxicity; reductions in FAM213B and HLA-F (FAM213B and HLA-F): also affected
